Test results from paper PMC10917816, “Synthesis and evaluation of coumarin derivatives on antioxidative, tyrosinase inhibitory activities, melanogenesis, and in silico investigations” (Scientific Reports, 2024).
“Also recorded” adds a separate entry of the source. Read-outs that look alike come from different tables or passages of the source.

Experiments:
[1] = Lipid peroxidation inhibitory activity (thiobarbituric acid test, linoleic acid); conditions: at 1 mg/ml of tested compound; TBA test
[2] = biological target: T1, mushroom tyrosinase (Agaricus bisporus, UniProt C7FF04); test: Mushroom tyrosinase activity assay (L-DOPA substrate); type: biochemical; conditions: for activity at 100 µM: <100 inhibitor, >100 activator; for Activity (inhibitor or activator of mushroom tyrosinase): classified from %activity at 100 µM (<100 inhibitor, >100 activator)
Description: Samples were dissolved in a mixture of DMSO and the phosphate buffer solution (40%DMSO, 20 µL) and were added into a 96-well microplate filled with phosphate buffer (20 mM, pH 6.8, 140 µL), mushroom tyrosinase (30 U/mL, 20 µL). After 10 min of pre-incubation at room temperature (25 °C), 20 µL of a 0.85 mM L-DOPA (3,4-dihydroxyphenylalanine) solution in phosphate buffer was added to the mixture. (Final concentration of the tested compound equaled 100 µM and final DMSO content equaled 4%). […] Instead of an inhibitor solution, phosphate buffer was added as the negative control. The percentage of tyrosinase activity was calculated as follows: %Activity = (Sample) × 100/Blank, where Blank = (OD of Blank solution at 10 min)—(OD of Blank solution at 0 min) and Sample = (OD of Sample solution at 10 min)—(OD of Sample solution at 0 min). Each sample was analyzed in triplicate (n = 3). […] Each sample was examined in triplicate.
Target sequence in this assay (C7FF04 1-392): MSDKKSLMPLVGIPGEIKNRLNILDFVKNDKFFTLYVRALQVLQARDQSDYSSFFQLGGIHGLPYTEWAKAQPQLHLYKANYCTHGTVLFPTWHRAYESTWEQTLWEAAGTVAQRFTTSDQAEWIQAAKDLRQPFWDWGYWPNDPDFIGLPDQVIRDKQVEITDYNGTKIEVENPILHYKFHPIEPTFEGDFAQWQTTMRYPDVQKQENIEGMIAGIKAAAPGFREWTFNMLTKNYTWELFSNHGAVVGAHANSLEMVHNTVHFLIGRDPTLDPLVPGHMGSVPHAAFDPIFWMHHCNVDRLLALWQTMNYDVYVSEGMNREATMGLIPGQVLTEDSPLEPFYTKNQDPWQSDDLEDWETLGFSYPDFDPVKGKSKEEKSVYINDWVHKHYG

[3] = Cell viability assay (MTT); type: cell-based, Mus musculus; conditions: mouse, B16F10 melanoma cells
Description: (§1) B16F10 cells were incubated with compounds 13 (25–100 µM) and 14 (25–150 µM) for 48 h. KA (50–200 µM) and 8-MOP (50–150 µM) were used as reference compounds for the tyrosinase inhibitor and the activator, respectively. […] (%viability decreased to 50%).
(§2) B16F10 cells (ATCC-CRL-6475, USA) were cultured in Dulbecco’s modified eagle medium (DMEM) containing 10% fetal bovine serum (FBS), 100 U/mL penicillin, and 1 μg/mL streptomycin. Cell viability was evaluated using the MTT assay. B16F10 cells (5 × 10^3 cells/well) were cultured in a 96-well plate at 37 °C in a 5% CO2 incubator for 24 h. Tested compounds dissolved in DMSO/H2O (40% v/v) at different concentrations were added to sample wells, and the cells were further incubated at 37 °C in a 5% CO2 incubator for 48 h. Then, 50 µL of methylthiazolyldiphenyl-tetrazolium bromide (MTT) solution (0.5 mg/ml in 10 mM phosphate buffer, pH 7.4) was added to each well and left under a CO2 incubator for 2 h. The formazan crystals formed were dissolved in DMSO, and the absorbance was measured at 570 nm. Percent viability was calculated as the percent of surviving cells in the well compared to the control cells.

[4] = tested on: B16F10 melanoma cells; test: Cell viability assay (MTT); type: cell-based, Mus musculus; conditions: 48 h
Description: as §1, §2

[5] = tested on: B16F10 cells; test: Melanin content assay; type: cell-based, Mus musculus; conditions: 48 h
Description: Compound 13 and compound 14 were also determined for their melanogenesis activities in the B16F10 cells. Intracellular melanin content was measured. […] However, the increase in melanin content in the cells was lower than cells treated with 8-MOP (Fig. 8B).
The method for the melanin content assay was modified from Lee et al.[37]. B16F10 (8 × 10^4 cell/mL) cells were seeded in a 6-well plate and incubated at 37 °C in a 5% CO2 incubator for 24 h. The tested and reference compounds in various concentrations were mixed with α-melanocyte stimulating hormone (α-MSH, 10 nM) and added to the well. The cells were continuously incubated at 37 °C for 48 h. Then, the cells were washed twice with 10 mM phosphate buffer pH 7.4. 1 M NaOH (0.2 mL) was added to each well and warmed at 65 °C for 1 h. The mixture was centrifuged at 12,000 rpm for 10 min. The absorbance of the supernatant was measured at 405 nm. The percent melanin content in the treatment group was obtained from the absorbance and calculated as a percentage compared to the untreated group.

[6] = biological target: T1, mushroom tyrosinase; test: Enzyme kinetic study (Lineweaver–Burk plot); type: biochemical; design: purchased Sigma-Aldrich or Merck AG; conditions: double-reciprocal (Lineweaver–Burk) plots
Description: Double-reciprocal plots were used to investigate the mechanisms of mushroom tyrosinase inhibition by compound 13 (Fig. 2).
Utilizing the same protocol as the tyrosinase activity assay, an enzyme kinetics study was conducted with compound 13. A Michaelis–Menten plot was generated by varying the substrate concentration (25–10,000 µM) and reaction rate under conditions with and without inhibitors. A Lineweaver–Burk plot was generated, and the inhibition mode of the inhibitor was determined based on the variation of Km and Vmax as the inhibitor concentration changed.
Target sequence in this assay (C7FF04 1-392 limits assumed): as the sequence (C7FF04 1-392) above

[7] = tested on: murine tyrosinase; conditions: broad range; cited from earlier work
[8] = at 100 µM of tested compound, read-out: Mushroom tyrosinase %Activity ± S.D.

SMILES	activity at 100 µM [2, 8] [%]	Activity (inhibitor or activator of mushroom tyrosinase) [2]	melting point [°C]	Lipid peroxidation %Inhibition ± S.D. [1] [%]	other results
Cc1cc(C(C)(C)C)c(O)c(C(C)(C)C)c1 [BHT, butylated hydroxytoluene, reference compound]				62.90 ± 3.56	
COc1c2occc2cc2ccc(=O)oc12 [Compound 8-MOP, 8-methoxypsoralen, reference compound]		Activator			activity at 100 µM ([2]; read-out: Mushroom tyrosinase %Activity ± S.D., at 100 µM of tested compound): 101 ± 6.18%
O=C(Cc1cc(=O)oc2cc(O)ccc12)NCCc1ccc(O)cc1 [Compound 10, N-(4-hydroxyphenethyl)-2-(7-hydroxy-2-oxo-2H-chromen-4-yl)acetamide]	121 ± 7.51	Activator	223 to 225	27.51 ± 2.78	
CCOC(=O)C(Cc1ccc(O)cc1)NC(=O)Cc1cc(=O)oc2cc(OC)ccc12 (stereo not drawn) [Compound 12, Ethyl 2-(2-(7-methoxy-2-oxo-2H-chromen-4-yl)acetamido)-3-(4-hydroxyphenyl) propanoate]	113 ± 8.16	Activator	154 to 155	77.84 ± 3.25	
CCOC(=O)C(Cc1c[nH]c2ccccc12)NC(=O)Cc1cc(=O)oc2cc(OC)ccc12 (stereo not drawn) [Compound 13]	51.1 ± 9.45	Inhibitor	162 to 163	67.88 ± 5.48	viability at 48 h, 75 µM ([3]; 75 µM): 50%; viability at 48 h ([3]; 25–50 µM): > 80%; Cytotoxicity against B16F10 cells ([4]; 25–50 μM): did not show cytotoxicity; Effect on melanogenesis (intracellular melanin content) in B16F10 cells ([5]; 25 μM, with α-MSH, compared with KA at 100 μM): inhibited melanogenesis equally to KA at 100 μM; Effect on melanogenesis (intracellular melanin content) in B16F10 cells ([5]; 50 μM, with α-MSH, compared with KA at 100 μM): suppressed melanogenesis in B16F10 cells with two times higher potency than KA; also recorded: suppressed melanogenesis with approximately two times higher potency than KA at 100 μM; also recorded: higher melanin suppression at a lower concentration (50 μM) than KA (100 μM); Mechanism of mushroom tyrosinase inhibition [6]: uncompetitive inhibition; also recorded: uncompetitively inhibited the tyrosinase enzyme; also recorded: uncompetitive tyrosinase inhibitor
COc1ccc2c(CC(=O)NCCc3ccc(O)cc3)cc(=O)oc2c1 [Compound 14, N-(4-hydroxyphenethyl)-2-(7-methoxy-2-oxo-2H-chromen-4-yl)acetamide]	123 ± 13.4	Activator	152 to 153	26.66 ± 1.67	Cytotoxicity against B16F10 cells ([4]; 25–100 μM): did not show cytotoxicity; Effect on melanogenesis (intracellular melanin content) in B16F10 cells ([5]; 25–100 μM, compared with 8-MOP): melanogenesis enhancement in B16F10 cells in a dose-dependent manner, however, inferior to the 8-MOP; also recorded: effectively enhanced melanogenesis in B16F10 cells in a dose-dependent manner
CCOC(=O)C(Cc1ccc(O)cc1)NC(=O)Cc1cc(=O)oc2cc(OC)c(O)cc12 (stereo not drawn) [Compound 16, Ethyl 2-(2-(6-hydroxy-7-methoxy-2-oxo-2H-chromen-4-yl)acetamido)-3-(4-hydroxyphenyl) propanoate]	100 ± 3.13	Activator	198 to 200	79.31 ± 2.77	
CCOC(=O)C(Cc1c[nH]c2ccccc12)NC(=O)Cc1cc(=O)oc2cc(OC)c(O)cc12 (stereo not drawn) [Compound 17]	75.9 ± 8.95	Inhibitor	173 to 174	91.84 ± 5.39	
COc1cc2oc(=O)cc(CC(=O)NCCc3ccc(O)cc3)c2cc1O [Compound 18, N-(4-hydroxyphenethyl)-2-(6-hydroxy-7-methoxy-2-oxo-2H-chromen-4-yl)acetamide]	115 ± 3.87	Activator	227 to 228	63.40 ± 0.89	
O=c1cc(CO)occ1O [KA, kojic acid]					Activity against murine tyrosinase [7]: > 100 µM

Now from value to compound, other results behind:

activity at 100 µM [2, 8] [%]	Activity (inhibitor or activator of mushroom tyrosinase) [2]	melting point [°C]	SMILES	Lipid peroxidation %Inhibition ± S.D. [1] [%]	other results
86.2 ± 10.5	Inhibitor	139 to 140	CCOC(=O)C(Cc1ccccc1)NC(=O)Cc1cc(=O)oc2cc(O)ccc12 (stereo not drawn) [Compound 7, Ethyl 2-(2-(7-hydroxy-2-oxo-2H-chromen-4-yl)acetamido)-3-phenylpropanoate]	98.66 ± 1.57	
107 ± 9.89	Activator	152 to 154	CCOC(=O)C(Cc1ccc(O)cc1)NC(=O)Cc1cc(=O)oc2cc(O)ccc12 (stereo not drawn) [Compound 8, Ethyl 2-(2-(7-hydroxy-2-oxo-2H-chromen-4-yl)acetamido)-3-(4-hydroxyphenyl)propanoate]	44.32 ± 4.16	
98.3 ± 2.55	Inhibitor	185 to 188	CCOC(=O)C(Cc1cc2ccccc2[nH]1)NC(=O)Cc1cc(=O)oc2cc(O)ccc12 (stereo not drawn) [Compound 9, Ethyl 2-(2-(7-hydroxy-2-oxo-2H-chromen-4-yl)acetamido)-3-(1H-indol-2-yl)propanoate]	77.57 ± 4.11	
81.3 ± 3.72	Inhibitor	144 to 145	CCOC(=O)C(Cc1ccccc1)NC(=O)Cc1cc(=O)oc2cc(OC)ccc12 (stereo not drawn) [Compound 11, Ethyl 2-(2-(7-methoxy-2-oxo-2H-chromen-4-yl)acetamido)-3-phenylpropanoate]	87.68 ± 1.09	
90.8 ± 12.4	Inhibitor	184 to 185	CCOC(=O)C(Cc1ccccc1)NC(=O)Cc1cc(=O)oc2cc(OC)c(O)cc12 (stereo not drawn) [Compound 15, Ethyl 2-(2-(6-hydroxy-7-methoxy-2-oxo-2H-chromen-4-yl)acetamido)-3-phenylpropanoate]	98.06 ± 0.54	
